Results: patent US8969331B2, “Treatment of skin and mucosal superficial wounds using adrenergic receptor agonists” (priority 2008, dated 2015)

Tested on: small cuts and/or abrasions
Assay: topical application of epinephrine compositions to small cuts and/or abrasions
Assay type: in vivo
Details: compositions containing from about 0.001 mg/ml to about 2.5 mg/ml, applied topically
[1] = compared with wounds untreated or treated with conventional methods

Question: For `CNC[C@H](O)c1ccc(O)c(O)c1` [epinephrine], which “scab formation on treated skin areas” value (assessed visually) is on record?
Answer: Its value is “no scabs were formed visually”.

Question: And the control of bleeding [1]?
Answer: The control of bleeding was “faster control of bleeding”.

Question: What about the “healing of small cuts and/or abrasions” value [1] of the same compound?
Answer: The value was “promoted healing of small cuts and/or abrasions”.
